Legend:
Settings in all cases: 72 h
[1] = system: U2OS; assay: relative viability EC50 (midpoint between 100% and the lowest measured viability); higher = less toxic
[2] = system: Vero E6; assay: as above
[3] = system: HepG2; assay: as above
[4] = system: Calu-3; assay: as above
[5] = system: U2OS; assay: cell viability relative to DMSO; higher = less toxic
[6] = system: Vero E6; assay: as above
[7] = system: Caco-2; assay: as above
[8] = system: HepG2; assay: as above
[9] = system: Calu-3; assay: as above
[10] = system: U2OS; assay: drug sensitivity score (DSS) for viability; higher = more toxic; extreme values may be limits of the assay
[11] = system: Vero E6; assay: as above
[12] = system: Caco-2; assay: as above
[13] = system: HepG2; assay: as above
[14] = system: Calu-3; assay: as above

SMILES | relative viability EC50 [1] | relative viability EC50 [2] | relative viability EC50 [3] | relative viability EC50 [4] | cell viability ([5]; 1 nM) | cell viability ([5]; 10 nM) | cell viability ([5]; 100 nM) | cell viability ([5]; 1000 nM) | cell viability ([5]; 10000 nM) | cell viability ([6]; 1 nM) | cell viability ([6]; 10 nM) | cell viability ([6]; 100 nM) | cell viability ([6]; 1000 nM) | cell viability ([6]; 10000 nM) | cell viability ([7]; 1 nM) | cell viability ([7]; 10 nM) | cell viability ([7]; 100 nM) | cell viability ([7]; 1000 nM) | cell viability ([7]; 10000 nM) | cell viability ([8]; 1 nM) | cell viability ([8]; 10 nM) | cell viability ([8]; 100 nM) | cell viability ([8]; 1000 nM) | cell viability ([8]; 10000 nM) | cell viability ([9]; 1 nM) | cell viability ([9]; 10 nM) | cell viability ([9]; 100 nM) | cell viability ([9]; 1000 nM) | cell viability ([9]; 10000 nM) | drug sensitivity score [10] | drug sensitivity score [11] | drug sensitivity score [12] | drug sensitivity score [13] | drug sensitivity score [14]
CCCc1c(-c2ccc(O)cc2)nn(-c2ccc(O)cc2)c1-c1ccc(O)cc1 [PPT] | > 10 µM | > 10 µM | > 10 µM | > 10 µM | 104% | 102% | 101% | 98.9% | 98.9% | 99.2% | 98.9% | 98.7% | 99.6% | 96% | 102% | 100% | 104% | 91% | 75% | 100% | 99.2% | 96% | 97% | 99.8% | 94.8% | 104% | 97.4% | 106% | 116% | 0 | 0 | 2.1 | 0 | 0
O=C(Nc1ccc(C(O)(C(F)(F)F)C(F)(F)F)cc1)c1ccc(C(F)(F)F)cc1 [SR-1078] | > 10 µM | > 10 µM | > 10 µM | 1.93 µM | 105% | 107% | 102% | 102% | 93.2% | 100% | 100% | 99.6% | 97.6% | 95.6% | 104% | 99.6% | 95.4% | 99.7% | 56.4% | 114% | 99.9% | 101% | 99% | 112% | 109% | 105% | 118% | 91.7% | 48.6% | 0 | 0 | 2.3 | 0 | 4.1
COc1ccc(C(=O)Nc2sc3c(c2C(N)=O)CCCC3)cc1OC [TCS-359] | > 10 µM | > 10 µM | > 10 µM | > 10 µM | 96.8% | 99% | 102% | 98.4% | 105% | 108% | 105% | 96% | 98.3% | 98.3% | – | – | – | – | – | 94.4% | 102% | 89.6% | 97.6% | 94.5% | 100% | 93.4% | 101% | 91.1% | 105% | 0 | 0 | – | 0 | 0
CC(C)(C)NC(=O)N[C@H](C(=O)N1C[C@H]2[C@@H]([C@H]1C(=O)NC(CC1CCC1)C(=O)C(N)=O)C2(C)C)C(C)(C)C (some centres not stated) [boceprevir] | > 10 µM | > 10 µM | > 10 µM | > 10 µM | 102% | 98.6% | 99.6% | 96.4% | 97.5% | 100% | 102% | 93.9% | 96.1% | 93.9% | – | – | – | – | – | 98.2% | 96.9% | 109% | 93.7% | 95.7% | 93.7% | 101% | 101% | 95.2% | 105% | 0 | 0 | – | 0 | 0
CCCC(=O)O[C@]1(C(=O)CCl)[C@@H](C)C[C@H]2[C@@H]3CCC4=CC(=O)C=C[C@]4(C)[C@@]3(F)C(=O)C[C@@]21C [clobetasone-butyrate] | > 10 µM | > 10 µM | > 10 µM | > 10 µM | 93.1% | 96.1% | 91.8% | 95% | 87.9% | 108% | 102% | 109% | 98.5% | 93% | 94.7% | 103% | 94.1% | 94.3% | 74.6% | 96.2% | 104% | 97.9% | 90.3% | 88.5% | 96.1% | 112% | 97.3% | 100% | 89% | 0 | 0 | 1.7 | 0.3 | 0
COc1cc2c(cc1Cc1cccc(Cl)c1F)c(=O)c(C(=O)O)cn2[C@H](CO)C(C)C [elvitegravir] | > 10 µM | > 10 µM | > 10 µM | > 10 µM | 93.6% | 95.7% | 92.8% | 96.3% | 80.3% | 101% | 97.9% | 98% | 93.6% | 99.5% | 95.3% | 91.8% | 87.6% | 99.8% | 69.3% | 117% | 106% | 109% | 104% | 91% | 99.2% | 97.4% | 102% | 96.7% | 88.1% | 0.5 | 0 | 1.4 | 0 | 0.2

Source: the supplement of paper PMC13380429
